Here are results for five compounds from patent publication US11564923B2, “Compounds and pharmaceutical compositions thereof for the treatment of inflammatory disorders” (Galapagos NV, priority 2017, dated 2023).

The target of assay [1] is T1, Recombinant human TYK2 catalytic domain (amino acids 871-1187) (Homo sapiens, UniProt P29597).
T1 construct: catalytic domain (amino acids 871-1187)
T1 sequence (P29597 871-1187): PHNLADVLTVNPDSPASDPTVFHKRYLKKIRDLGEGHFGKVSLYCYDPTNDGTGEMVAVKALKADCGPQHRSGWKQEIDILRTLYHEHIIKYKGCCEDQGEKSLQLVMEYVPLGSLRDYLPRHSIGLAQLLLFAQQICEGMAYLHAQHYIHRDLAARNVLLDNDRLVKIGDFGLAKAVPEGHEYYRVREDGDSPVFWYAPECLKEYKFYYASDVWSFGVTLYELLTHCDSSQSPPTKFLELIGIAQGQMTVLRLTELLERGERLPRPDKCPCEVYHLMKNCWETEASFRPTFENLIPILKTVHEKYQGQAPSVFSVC
The experiment in a line: TYK2 ADPglo kinase assay. Note: 12 µM ATP. In kind it is biochemical. The protocol:
After 120 min at room temperature, reactions were stopped and the remaining ATP is depleted by adding 5 μL/well of ADP Glo Reagent (Promega, catalog number V912B). After 40 min at room temperature, 10 μl Kinase Detection Reagent (Kinase Detection Substrate (Promega, catalog number V914B) dissolved in Kinase Detection Buffer (Promega, catalog number V913B)) is added to convert ADP to ATP and to measure this newly synthesized ATP in a luciferase/luciferin reaction. Readout is performed after 30 min incubation at room temperature using the Envision. Kinase activity is calculated by subtracting the relative light units (RLU) obtained in the presence of a positive control inhibitor (10 μM staurosporine) from the RLU obtained in the presence of vehicle. The ability of a test compound to inhibit this activity (or percentage inhibition) is determined as:
RLU test compound=RLU determined for sample with test compound present
RLU control=RLU determined for sample with positive control inhibitor
RLU vehicle=RLU determined in the presence of vehicle
Dose dilution series were prepared for the compounds enabling the testing of dose-response effects in the TYK2 assay and the calculation of the IC50 for the compound. Each compound is routinely tested at concentration of 20 μM followed by a 1/5 serial dilution, 10 points in a final concentration of 1% DMSO. […] The data are expressed as the average IC50 from the assays.

The test system of assay [2] is IFNα activation of STAT1 in PBMC. Briefly: IFNα activation of STAT1 in PBMC. In kind it is cell-based. The following applies: Homo sapiens; IFNα activation of STAT1 in PBMC; average IC50; read-out: IFNα signaling inhibitory potency IC50. The method, boiled down: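 Human PBMC, with red cells lysed by NH4Cl, were pre-treated with compound for 30 min at 37 °C and 5% CO2. They were then stimulated for 30 min with recombinant human IFNα at 5 ng/mL final.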

Assay [3] deals with IL-12 activation of STAT4 in NK-92 cells. The experiment in a line: IL-12 activation of STAT4 in NK-92 cells using AphaLISA SureFire technology. The following applies: Homo sapiens, NK92; IL-12 activation of STAT4 in NK-92 cells, AlphaLISA SureFire; average IC50; read-out: IL12 pSTAT4 IC50. In kind it is cell-based. A digest of the protocol:
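NK-92 cells, starved of rhIL-2 overnight, were stimulated with rhIL-12 for 30 min at 37 °C with test compounds, then lysed. Phospho-STAT4 (Tyr693) was read by AlphaLISA SureFire. Percent inhibition versus the vehicle-plus-trigger signal was fitted by sigmoidal nonlinear regression to give IC50, averaged over experiments.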

For assay [4], the system named is IFNα stimulation, Phospho-STAT1 on CD4+ cells in human whole blood. The experiment in a line: Human whole blood assay (hWBA), IFNα stimulation. In kind it is cell-based. Particulars: Universal type I IFN 1000 U/mL, pSTAT1 on CD4+ cells, read-out: IFN α IC50. As to the method:
(§1) A flow cytometry analysis is performed to establish JAK1 and TYK2 compound potency ex vivo using human whole blood. Therefore, blood is taken from human volunteers who gave informed consent, then equilibrated for 30 min at 37° C. under gentle rocking and aliquoted in Eppendorf tubes. Compound is added at different concentrations and incubated at 37° C. for 30 min under gentle rocking and subsequently stimulated for 20 min at 37° C. under gentle rocking with interleukin 6 (IL-6) for JAK-dependent pathway stimulation or IFNα for TYK2-dependent pathway stimulation. Phospho-STAT1 is then evaluated using FACS analysis.
(§2) The remaining diluted Lyse/Fix buffer is discarded.
(§3) A 3-fold dilution series of the compound is prepared in DMSO (10 mM stock solution). Control-treated samples received DMSO instead of compound. All samples are incubated with a 1% final DMSO concentration.
Human blood is collected in heparinized tubes. The blood is divided in aliquots of 148.5 μL. Then, 1.5 μL of the test compound dilution is added to each blood aliquot and the blood samples are incubated for 30 min at 37° C. under gentle rocking. One and a half microliter of 10-fold diluted IL-6 stock solution or Universal type 1 IFN is added to the blood samples (final concentration 10 ng/mL and 1000 U/mL, respectively) and samples are incubated at 37° C. for 20 min under gentle rocking.
At the end of the stimulation period, 3 mL of 1× pre-warmed Lyse/Fix buffer is immediately added to the blood samples, vortexed briefly and incubated for 15 min at 37° C. in a water bath in order to lyse red blood cells and fix leukocytes.
Tubes are centrifuged for 5 min at 400×g at 4° C. The cell pellet is washed with 3 mL of cold 1×PBS, and after centrifugation the cell pellet is resuspended in 100 μL of ice-cold 1×PBS and 900 μL ice-cold 100% MeOH is added. Cells are then incubated at 4° C. for 30 min for permeabilization.
Permeabilized cells are then washed with 1×PBS containing 3% BSA and finally resuspended in 80 μL of 1×PBX containing 3% BSA.
(§4) Cells are then washed once with 1×PBS and analyzed on a FACSCanto II flow cytometer (BD Biosciences).
(§5) 50,000 total events are counted and Phospho-STAT1 positive cells are measured after gating on CD4+ cells, in the lymphocyte gate.

Assay [5] addresses T1, Recombinant human TYK2 catalytic domain (amino acids 871-1187). The experiment in a line: TYK2 radioactive assay polyGT substrate. Note: 0.1 µM ATP. The class given is biochemical. A digest of the protocol: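 Reaction at 30° C. for 120 min, ended with 150 mM phosphoric acid, washed, counted; percent inhibition scaled between vehicle and 10 μM staurosporine cpm.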
Assay [6] deals with IL-6 stimulation, Phospho-STAT1 on CD4+ cells in human whole blood. The experiment in a line: Human whole blood assay (hWBA), IL-6 stimulation. The following applies: IL-6 10 ng/mL, pSTAT1 on CD4+ cells, read-out: IL6 IC50. In kind it is cell-based. As to the method: as §1, §2, §3
Human blood is collected in heparinized tubes. The blood is divided in aliquots of 148.5 μL. Then, 1.5 μL of the test compound dilution is added to each blood aliquot and the blood samples are incubated for 30 min at 37° C. under gentle rocking. […]
as §4, §5

In general, IC50 refers to the concentration at which inhibition is half-maximal. Regarding `Cc1cc(C#N)ncc1Oc1cc(Nc2ccc(N3C[C@@H](C)O[C@H](C)C3)nn2)c2ncn(C)c2n1` (racemic) [Compound 176, 4-methyl-5-[3-methyl-7-[[6-[rac-(2R,6R)-2,6-dimethylmorpholin-4-yl]pyridazin-3-yl]amino]imidazo[4,5-b]pyridin-5-yl]oxypyridine-2-carbonitrile], the half-maximal inhibitory concentration (IC50) in assay [1] was found to be 0.93 nM; in assay [2], 66.5 nM; in assay [3], 40.5 nM; in assay [4] it was 757 nM.

Turning to `Cc1cc(C#N)ncc1Oc1cc(Nc2ccc(C(=O)N3CC[C@H](O)C3)cn2)c2ncn(C)c2n1` [Compound 112, 5-[7-[[5-[(3S)-3-hydroxypyrrolidine-1-carbonyl]-2-pyridyl]amino]-3-methyl-imidazo[4,5-b]pyridin-5-yl]oxy-4-methyl-pyridine-2-carbonitrile], the IC50 in assay [5] was 4.29 nM; in assay [2], 130 nM; in assay [3] it was 1100 nM; in assay [4], 447 nM.

For `Cc1cc(C#N)ncc1Oc1cc(Nc2ccc(C(=O)N3CCN(C)CC3)nn2)c2ncn(C)c2n1` [Compound 150, 4-methyl-5-[3-methyl-7-[[6-(4-methylpiperazine-1-carbonyl)pyridazin-3-yl]amino]imidazo[4,5-b]pyridin-5-yl]oxypyridine-2-carbonitrile], the IC50 was 1.1 nM in assay [1]; 278 nM in assay [2]; 1020 nM in assay [3]; 269 nM in assay [4]; 6810 nM in assay [6].

For `Cc1cc(C#N)ncc1Oc1cc(Nc2ccc(N3C[C@H](C)O[C@@H](C)C3)nn2)c2ncn(C)c2n1` [Compound 166, 5-[7-[[6-[(2S,6S)-2,6-dimethylmorpholin-4-yl]pyridazin-3-yl]amino]-3-methylimidazo[4,5-b]pyridin-5-yl]oxy-4-methylpyridine-2-carbonitrile], the half-inhibitory concentration (IC50) in assay [1] came out at 2.28 nM; in assay [2], 84 nM; in assay [3] it was 97 nM; in assay [4] it was 1450 nM.

Take `Cc1cc(C#N)ncc1Oc1cc(Nc2ccc(N3C[C@@H](C)O[C@H](C)C3)nn2)c2ncn(C)c2n1` [Compound 168, 5-[7-[[6-[(2R,6R)-2,6-dimethylmorpholin-4-yl]pyridazin-3-yl]amino]-3-methylimidazo[4,5-b]pyridin-5-yl]oxy-4-methylpyridine-2-carbonitrile]: the IC50 came out at 2.39 nM in assay [1], 82 nM in assay [2], 87 nM in assay [3] and 1070 nM in assay [4].
